Target: T1, human M5 receptors (hM5) (Homo sapiens, UniProt P08912)
T1 construct: expressed in transfected cells
T1 sequence (P08912 1-532): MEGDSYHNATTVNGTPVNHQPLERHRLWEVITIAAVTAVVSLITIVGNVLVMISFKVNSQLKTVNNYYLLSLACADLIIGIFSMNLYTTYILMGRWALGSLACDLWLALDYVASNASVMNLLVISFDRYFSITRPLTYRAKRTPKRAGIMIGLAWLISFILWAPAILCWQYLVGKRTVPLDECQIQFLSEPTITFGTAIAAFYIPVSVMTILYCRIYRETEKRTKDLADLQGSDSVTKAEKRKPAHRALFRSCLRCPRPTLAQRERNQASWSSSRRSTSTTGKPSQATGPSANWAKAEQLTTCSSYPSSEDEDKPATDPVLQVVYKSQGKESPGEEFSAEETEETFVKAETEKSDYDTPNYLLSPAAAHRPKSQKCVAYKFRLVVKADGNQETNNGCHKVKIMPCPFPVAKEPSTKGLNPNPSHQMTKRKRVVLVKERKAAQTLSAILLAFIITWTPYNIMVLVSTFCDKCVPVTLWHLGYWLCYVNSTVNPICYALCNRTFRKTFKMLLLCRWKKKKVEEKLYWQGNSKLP
Test: Cell-based functional calcium mobilization assay of mAChR M5 activity (inhibition of EC80 acetylcholine response) in CHO cells
Settings: CHO cells stably expressing hM5; for IC50: calcium flux (Fluo-4), EC80 acetylcholine addition; for EC80 MIN: minimum of EC80 acetylcholine response, normalized to maximum acetylcholine response
Summary of the method: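 CHO cells stably expressing human M5, loaded with Fluo-4 AM in HBSS/20 mM HEPES/2.5 mM probenecid pH 7.4. Compound added 140 s before acetylcholine EC20, then EC80 added 125 s later. Calcium flux normalized to maximal acetylcholine response; IC50 from ten-point curves in the EC80 window.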

Compound	IC50 [µM]	EC80 MIN [%]
C[C@H]1CN(S(=O)(=O)c2ccc3c(c2)C(C)(C)CO3)C[C@@H]1C(=O)Nc1ccc2scnc2c1 [Compound 128, (3R,4R)-N-(benzo[d]thiazol-5-yl)-1-((3,3-dimethyl-2,3-dihydrobenzofuran-5-yl)sulfonyl)-4-methylpyrrolidine-3-carboxamide]	> 10	29
C[C@@H]1CN(S(=O)(=O)c2ccc3c(c2)C(C)(C)CO3)C[C@@H]1C(=O)Nc1ccc2scnc2c1 [Compound 129]	6.49	4
O=C(Nc1ccc2cccnc2c1)C1CCN(S(=O)(=O)c2ccc3c(c2)CCO3)CC1 [Compound 135, 1-((2,3-dihydrobenzofuran-5-yl)sulfonyl)-N-(quinolin-7-yl)pipcridinc-4-carboxamide]	1.8	3
O=C(Nc1ccc2scnc2c1)[C@@H]1CCN(S(=O)(=O)c2ccc3ncsc3c2)C1 [Compound 136, (R)-N-(benzo[d]thiazol-5-yl)-1-(benzo[d]thiazol-6-ylsulfonyl)pyrrolidine-3-carboxamide]	0.29	2
Cc1nn(C)cc1S(=O)(=O)N1CC[C@@H](C(=O)Nc2ccc3scnc3c2)C1 [Compound 137, (R)-N-(benzo[d]thiazol-5-yl)-1-((1,3-dimethyl-1H-pyrazol-4-yl)sulfonyl)pyrrolidine-3-carboxamide]	> 10	6
[2H]C1([2H])Oc2ccc(S(=O)(=O)N3C[C@@H](C)[C@@H](C(=O)Nc4ccc5scnc5c4)C3)cc2C1([2H])[2H] [Compound 148, (3R,4S)-N-(benzo[d]thiazol-5-yl)-1-((2,3-dihydrobenzofuran-5-yl-2,2,3,3-d4)sulfonyl)-4-methylpyrrolidine-3-carboxamide]	0.03	3
Cc1noc2ncc(S(=O)(=O)N3CC[C@@H](C(=O)Nc4ccc5scnc5c4)C3)cc12 [Compound 149, (R)-N-(benzuo[d]thiazo1-5-yl)-1-((3-methylisoxazolo[5,4-b]pyridin-5-yl)sulfonyl)pyrrolidine-3-carboxamide]	> 10	36
Cc1noc(C)c1S(=O)(=O)N1CC[C@@H](C(=O)Nc2ccc3scnc3c2)C1 [Compound 151, (R)-N-(benzo[d]thiazo1-5-yl)-1-((3,5-dimethylisoxazol-4-yl)sulfonyl)pyrrolidine-3-carboxamide]	3.84	5
O=C(Nc1ccc2scnc2c1)[C@@H]1CCN(S(=O)(=O)c2ccc3ncccc3c2)C1 [Compound 152, (R)-N-(benzo[d]thiazol-5-yl)-1-(quinolin-6-ylsulfonyl)pyrrolidine-3-carboxamide]	0.352	3
COc1ccc(S(=O)(=O)N2CC[C@@H](C(=O)Nc3ccc4scnc4c3)C2)c(C)c1 [Compound 153, (R)-N-(benzo[d]thiazo1-5-yl)-1-((4-methoxy-2-methylphenyl)sulfonyl)pyrr olidine-3-carboxarnide]	1.47	3
O=C(Nc1ccc2scnc2c1)C1CCN(S(=O)(=O)c2ccccc2-c2ccno2)CC1 [Compound 155, N-(benzo[d]thiazol-5-yl)-1-((2-(isoxazol-5-yl)phenyl)sulfonyl)piperidine-4-carboxamide]	> 10	54

The remaining lines, values ahead:

IC50 [µM]	EC80 MIN [%]	Compound
> 10	55	CC1(C)COc2ccc(S(=O)(=O)N3CCC(C(=O)Nc4ccc5scnc5c4)CC3)cc21 [Compound 126, N-(benzo[d]thiazol-5-yl)-1-((3,3-dimethyl-2,3-dihydrobenzofuran-5-yl)sulfonyl)piperidine-4-carboxamide]
> 10	8	CC1(C)COc2ccc(S(=O)(=O)N3CC[C@@H](C(=O)Nc4ccc5scnc5c4)C3)cc21 [Compound 127, (R)-N-(benzo[d]thiazol-5-yl)-1-((3,3-dimethyl-2,3-dihydrobenzofuran-5-yl)sulfonyl)pyrrolidine-3-carboxamide]
> 10	7	CC1(C)CN(S(=O)(=O)c2ccc3c(c2)CCO3)CCC1C(=O)Nc1ccc2scnc2c1 (stereo not shown) [Compound 138, N-(benzo[d]thiazol-5-yl)-1-((2,3-dihydrobenzofuran-5-yl)sulfonyl)-3,3-dimethylpiperidine-4-carboxamide]
0.076	2	[2H]C1([2H])Oc2ccc(S(=O)(=O)N3CCC(C(=O)Nc4ccc5scnc5c4)CC3)cc2C1([2H])[2H] [Compound 139, N-(benzo[d]thiazol-5-yl)-1-((2,3-dihydrobenzofuran-5-yl-2,2,3,3-d4)sulfonyl)piperidine-4-carboxamide]
0.035	2	[2H]C1([2H])Oc2ccc(S(=O)(=O)N3CC[C@@H](C(=O)Nc4ccc5scnc5c4)C3)cc2C1([2H])[2H] [Compound 140]
> 10	38	CC1(C)CN(S(=O)(=O)c2ccc3ncsc3c2)CCC1C(=O)Nc1ccc2scnc2c1 (stereo not shown) [Compound 141, N-(benzo[d]thiazol-5-yl)-1-(benzo[d]thiazol-6-ylsulfonyl)-3,3-dimethylpiperidine-4-carboxamide]
4.44	3	CC1(C)CN(S(=O)(=O)c2ccc(Cl)nc2)CCC1C(=O)Nc1ccc2scnc2c1 (stereo not shown) [Compound 142]
> 10	40	Cc1nn(C)cc1S(=O)(=O)N1CCC(C(=O)Nc2ccc3scnc3c2)C(C)(C)C1 (stereo not shown) [Compound 143, N-(benzo[d]thiazol-5-yl)-1-((1,3-dimethyl-1H-pyrazol-4-yl)sulfonyl)-3,3-dimethylpiperidine-4-carboxamide]
> 10	25	CC1(C)CN(S(=O)(=O)c2cc3c(cc2F)OCC3)CCC1C(=O)Nc1ccc2scnc2c1 (stereo not shown) [Compound 144, N-(benzo[d]thiazol-5-yl)-1-((6-fluoro-2,3-dihydrobenzofuran-5-yl)sulfonyl)-3,3-dimethylpiperidine-4-carboxamide]
0.404	2	O=C(Nc1ccc2scnc2c1)C1CCN(S(=O)(=O)c2cc3c(cc2F)OCC3)CC1(F)F (stereo not shown) [Compound 147, N-(benzo[d]thiazol-5-yl)-3,3-difluoro-1-((6-fluoro-2.3-dihydrobenzofuran-5-yl)sulfonyl)piperidine-4-carboxamide]
> 10	–	O=C(Nc1ccc2scnc2c1)[C@@H]1CCN(S(=O)(=O)c2ccc3c(c2)CCC3)C1 [Compound 150, (R)-N-(benzo[d]thiazol-5-yl)-1-((2,3-dihydro-1H-inden-5-yl)sulfonyl)pyrrolidine-3-carboxamide]
0.35	3	O=C(Nc1ccc2scnc2c1)[C@@H]1CCN(S(=O)(=O)c2ccc3c(c2)OCO3)C1 [Compound 154, (R)-1-(benzo[d][1,3]dioxol-5-yisulfonyl)-N-(benzo[d]thiazol-5-yl)pyrrolidine-3-carboxamide]
> 10	6	O=C(Nc1ccc2scnc2c1)C1CCN(S(=O)(=O)c2ccccc2F)CC1 [Compound 156, N-(benzo[d]thiazol-5-yl)-1-((2-fluorophcnyl)sulfonyl)piper idine-4-carboxaniide]
2.34	4	Cn1cc(S(=O)(=O)N2CCC(C(=O)Nc3ccc4scnc4c3)CC2)c(C(F)(F)F)n1 [Compound 157, N-(benzo[d]thiazol-5-yl)-1-((1-methyl-3-(trifluoromethyl)-1H-pyrazo1-4-yl)sulfonyl)piperidine-4-carboxamide]
